ChEMBL document CHEMBL3885861, “Open TG-GATES”

Species: Rattus norvegicus
Assay: Open TG-GATES - Regimen: Single
Format: toxicity, organism-based, Sprague-Dawley
Design: regimen Single, gender Male, age 6 weeks
Settings: in vivo, po, 30 mg/kg, route gavage, dose level Middle; for APTT / Bas / Eos / Fbg / Hb / Ht / Lym / MCH / MCHC / MCV / Mono / Neu / PT / Plat / RBC / Ret / WBC: tissue Blood; for KIDNEY_L / KIDNEY_R / KIDNEY_TOTAL: tissue Kidney; for LIVER: tissue Liver; for A/G / ALP / ALT / AST / BUN / CRE / Ca / Cl / DBIL / GLC / IP / K / LDH / Na / PL / RALB / TBIL / TC / TG / TP / gamma-GTP: tissue Plasma

Work on `CCN(CC)N=O` [N-NITROSODIETHYLAMINE] yielded a TERMINAL_BW (3 h) of 220.7 g, an APTT (3 h) of 19.6 s and a Bas (3 h) of 0%. The Eos (3 h) was 1%, the Fbg (3 h) was 200.2 mg/dL and the Hb (3 h) was 13.1 g/dL. It also gave a Ht (3 h) of 37.7%, a Lym (3 h) of 80.2% and an MCH (3 h) of 21.4 pg. It also gave an MCHC (3 h) of 34.6%, an MCV (3 h) of 61.8 fL and a Mono (3 h) of 1.6%. It also gave a Neu (3 h) of 16.6%, a PT (3 h) of 12 s and a Plat (3 h) of 118.4 x10_4/uL. For the same molecule, the RBC (3 h) was 610.2 x10_4/ul, the Ret (3 h) was 7.2% and the WBC (3 h) was 67.1 x10_2/uL. For the same molecule, the KIDNEY_L (3 h) was 1 g, the KIDNEY_R (3 h) was 1 g and the KIDNEY_TOTAL (3 h) was 2 g. The LIVER (3 h) was 9.5 g, the A/G (3 h) was 1.6 and the ALP (3 h) was 868.6 IU/L. For the same molecule, the ALT (3 h) was 37.8 IU/L, the AST (3 h) was 72 IU/L and the BUN (3 h) was 11 mg/dL. It also gave a CRE (3 h) of 0.4 mg/dL, a Ca (3 h) of 10.1 mg/dL and a Cl (3 h) of 102.4 meq/L. It also gave a DBIL (3 h) of 0.06 mg/dL, a GLC (3 h) of 195.6 mg/dL and an IP (3 h) of 8.6 mg/dL. It also gave a K (3 h) of 3.6 meq/L, an LDH (3 h) of 179.2 IU/L and a Na (3 h) of 140.6 meq/L. The PL (3 h) was 130.2 mg/dL, the RALB (3 h) was 3.3 g/dL and the TBIL (3 h) was 0.1 mg/dL. It also gave a TC (3 h) of 82.6 mg/dL, a TG (3 h) of 38.6 mg/dL and a TP (3 h) of 5.4 g/dL. It also gave a gamma-GTP (3 h) of 0.8 IU/L, a TERMINAL_BW (6 h) of 224.6 g and an APTT (6 h) of 18.5 s. The Bas (6 h) was 0.6%, the Eos (6 h) was 1% and the Fbg (6 h) was 234.2 mg/dL. For the same molecule, the Hb (6 h) was 13.4 g/dL, the Ht (6 h) was 38.8% and the Lym (6 h) was 78.8%. For the same molecule, the MCH (6 h) was 21.8 pg, the MCHC (6 h) was 34.5% and the MCV (6 h) was 63.1 fL. It also gave a Mono (6 h) of 2.8%, a Neu (6 h) of 16.2% and a PT (6 h) of 12.4 s. It also gave a Plat (6 h) of 135.1 x10_4/uL, an RBC (6 h) of 615.6 x10_4/ul and a Ret (6 h) of 7.7%. For the same molecule, the WBC (6 h) was 111.7 x10_2/uL, the KIDNEY_L (6 h) was 1 g and the KIDNEY_R (6 h) was 1 g. It also gave a KIDNEY_TOTAL (6 h) of 1.9 g, an LIVER (6 h) of 9.9 g and an A/G (6 h) of 1.6. For the same molecule, the ALP (6 h) was 932.2 IU/L, the ALT (6 h) was 40.6 IU/L and the AST (6 h) was 78 IU/L. The BUN (6 h) was 14.2 mg/dL, the CRE (6 h) was 0.4 mg/dL and the Ca (6 h) was 10.3 mg/dL. The Cl (6 h) was 104.2 meq/L, the DBIL (6 h) was 0.072 mg/dL and the GLC (6 h) was 186.4 mg/dL. For the same molecule, the IP (6 h) was 8.3 mg/dL, the K (6 h) was 3.9 meq/L and the LDH (6 h) was 224 IU/L. It also gave a Na (6 h) of 141 meq/L, a PL (6 h) of 130.8 mg/dL and an RALB (6 h) of 3.3 g/dL. It also gave a TBIL (6 h) of 0.1 mg/dL, a TC (6 h) of 81.4 mg/dL and a TG (6 h) of 37.8 mg/dL. It also gave a TP (6 h) of 5.4 g/dL, a gamma-GTP (6 h) of 1.6 IU/L and a TERMINAL_BW (9 h) of 224.1 g. For the same molecule, the APTT (9 h) was 18.7 s, the Bas (9 h) was 0.4% and the Eos (9 h) was 1%. The Fbg (9 h) was 229 mg/dL, the Hb (9 h) was 13.7 g/dL and the Ht (9 h) was 39.6%. It also gave a Lym (9 h) of 79.6%, an MCH (9 h) of 21.5 pg and an MCHC (9 h) of 34.4%. It also gave an MCV (9 h) of 62.4 fL, a Mono (9 h) of 3% and a Neu (9 h) of 15%. For the same molecule, the PT (9 h) was 12.4 s, the Plat (9 h) was 126.6 x10_4/uL and the RBC (9 h) was 635.4 x10_4/ul. For the same molecule, the Ret (9 h) was 7.1%, the WBC (9 h) was 94.4 x10_2/uL and the KIDNEY_L (9 h) was 1 g. The KIDNEY_R (9 h) was 1 g, the KIDNEY_TOTAL (9 h) was 1.9 g and the LIVER (9 h) was 10 g. For the same molecule, the A/G (9 h) was 1.7, the ALP (9 h) was 978.4 IU/L and the ALT (9 h) was 45.6 IU/L. For the same molecule, the AST (9 h) was 80.4 IU/L, the BUN (9 h) was 15.4 mg/dL and the CRE (9 h) was 0.4 mg/dL. The Ca (9 h) was 10.4 mg/dL, the Cl (9 h) was 103.4 meq/L and the DBIL (9 h) was 0.088 mg/dL. For the same molecule, the GLC (9 h) was 186 mg/dL, the IP (9 h) was 8.6 mg/dL and the K (9 h) was 3.8 meq/L. The LDH (9 h) was 191.6 IU/L, the Na (9 h) was 141.2 meq/L and the PL (9 h) was 130.4 mg/dL. For the same molecule, the RALB (9 h) was 3.5 g/dL, the TBIL (9 h) was 0.1 mg/dL and the TC (9 h) was 76.8 mg/dL. The TG (9 h) was 44.8 mg/dL, the TP (9 h) was 5.5 g/dL and the gamma-GTP (9 h) was 1.4 IU/L. It also gave a TERMINAL_BW (24 h) of 225 g, an APTT (24 h) of 17.9 s and a Bas (24 h) of 1%. For the same molecule, the Eos (24 h) was 1%, the Fbg (24 h) was 217.4 mg/dL and the Hb (24 h) was 14 g/dL. The Ht (24 h) was 41.2%, the Lym (24 h) was 81% and the MCH (24 h) was 21.6 pg. For the same molecule, the MCHC (24 h) was 33.9%, the MCV (24 h) was 63.8 fL and the Mono (24 h) was 3%. It also gave a Neu (24 h) of 13.6%, a PT (24 h) of 12.7 s and a Plat (24 h) of 125.9 x10_4/uL. For the same molecule, the RBC (24 h) was 645.6 x10_4/ul, the Ret (24 h) was 6.7% and the WBC (24 h) was 95.1 x10_2/uL. For the same molecule, the KIDNEY_L (24 h) was 1 g, the KIDNEY_R (24 h) was 1 g and the KIDNEY_TOTAL (24 h) was 2 g. It also gave an LIVER (24 h) of 9.5 g, an A/G (24 h) of 1.6 and an ALP (24 h) of 918.6 IU/L. For the same molecule, the ALT (24 h) was 37.8 IU/L, the AST (24 h) was 71 IU/L and the BUN (24 h) was 12.8 mg/dL. For the same molecule, the CRE (24 h) was 0.4 mg/dL, the Ca (24 h) was 10.7 mg/dL and the Cl (24 h) was 103.4 meq/L. It also gave a DBIL (24 h) of 0.084 mg/dL, a GLC (24 h) of 193 mg/dL and an IP (24 h) of 9 mg/dL. For the same molecule, the K (24 h) was 3.9 meq/L, the LDH (24 h) was 212.4 IU/L and the Na (24 h) was 140.6 meq/L. It also gave a PL (24 h) of 135.8 mg/dL, an RALB (24 h) of 3.3 g/dL and a TBIL (24 h) of 0.1 mg/dL. It also gave a TC (24 h) of 78.4 mg/dL, a TG (24 h) of 47.2 mg/dL and a TP (24 h) of 5.3 g/dL. It also gave a gamma-GTP (24 h) of 1.4 IU/L.
